# According to paper PMC5730604:
# Positions of bridges follow the written chain, without caps; N, C: chain ends. Non-standard residues stand in square brackets, D forms with d. Residues, ends and D or L forms follow the SMILES beside them. Chains are numbered I, II in the order given. *: point of attachment. PEG28 = NCCOCCOCCOCCOCCOCCOCCOCCOCCOCCOCCOCCOCCOCCOCCOCCOCCOCCOCCOCCOCCOCCOCCOCCOCCOCCOCCOCCOCCC(=O)O; Tyr(3-NO2) = N[C@@H](Cc1ccc(O)c([N+](=O)[O-])c1)C(=O)O; Hyp = O=C(O)[C@@H]1C[C@@H](O)CN1; For = O=C*
# Experiments:
# [1] = fresh mouse serum, 60 µM, extraction and RP-HPLC (C4) quantification at 214 and 375 nm
# Protocol: vor t exing the sample was incubated f or 48 h. At specif ic time points, the solution was again
# vortexed, a sample (95 µl) was withdra wn and subjected to ultraf iltration (Vivaspin 500, 10 k Da
# cutoff; 15 min, 16,000 g). The f iltrate was put on ice while the f ilter remainder was mixed with
# an equal volume of ethanol (95%), vortexed and centrifuged (5 min, 16.000 g). W ith the
# resulting supernatant, this procedure was repeated. The f inal supernatant was mixed with an
# equal volume of f iltrate, shock frozen in liq uid nitr og en and stored at - 80 °C until analysis. RP -
# HPLC analysis was performed using an analytical C4- RP column with a gradient of 5-65%
# absorption at 214 and 375 nm (specif ic absorption maximum of the nitro-tyrosine building block
# The absorption peak observed at the
# GPC-16 tumor cells = assay: GPC-16 tumor model in guinea pigs; format: in vivo, Guinea pig
# Protocol: by incubation with a 1:50 dilution of the secondary antibody (biotinylated goat -ant i-r at Ig G, BD Pharmingen, #554014 ). After incubation with horseradish peroxidase (HRP) coupled streptavidin color development was performed using the DAB substrate kit. All immunohistochemical stained tissue sections were counterstained using haemalaun or […]
# Assessment of anti-tumor efficacy in the GPC -16 tumor model in guinea pig GPC-16 cells (guinea pig colorectal adenocarcinoma) were acquired from LGC and were cultured in Eagle’s minimum essential medium with 10% FCS and 100 U/ml Penicillin and 100 µg/ml Streptomycin. For each experiment 10 f emale guinea pigs (8- 10 weeks old) per group were immunosuppressed with an intraperitoneal injection of 200 mg/kg cyclophosphamide (CPA) one day bef ore the tumor inoculation and repeated every 7- 10 days for 4 week s. Efficacy of the CPA treatment was verif ied by routine blood analysis bef ore f irst CPA treatment and on a week ly basis thereafter. For the evaluation of the anti-tumor efficacy of the Y9 the 10 animals were divided into two groups of 5 animals. […] The presence of tumors in the sk in sections was evaluated by a board certif ied veterinarian pathologist using a scoring system. […]
# T o study whether a repeated subcutaneous dosing of Y9 has any local or systemic toxic effects on animals, the following dose escalation study was performed. […] B ody weig ht and general health observations were evaluated on a daily basis. […] Organs (sk in, brain, heart, k idney, liver, lung, ovaries/testis, spleen, local and distal lymph nodes, mesentery, small intestine, stomach, pancreas) were isolated af ter euthanasia with an isof lurane overdose for histopathology and body weight-normalized organ weights (brain, kidney, heart, liver, spleen) were calculated.
# W eights of the carcass, brain, heart, kidney, liver and spleen were determined and body weight-normalized organ weight in % was calculated as follows: […]
smiles,measurement,setting,value
"CC[C@H](C)[C@H](NC(=O)[C@H](CCSC)NC=O)C(=O)N[C@@H](Cc1ccccc1)C(=O)N[C@@H](CC(C)C)C(=O)NCC(=O)NCC(=O)N[C@@H](CCCCNC(=O)CCOCCOCCOCCOCCOCCOCCOCCOCCOCCOCCOCCOCCOCCOCCOCCOCCOCCOCCOCCOCCOCCOCCOCCOCCOCCOCCOCCOCCNC(=O)[C@H]1CSSC[C@@H](N)C(=O)N[C@H](CC(=O)O)C(=O)NCC(=O)N[C@@H](Cc2ccc(O)c([N+](=O)[O-])c2)C(=O)NCC(=O)N2C[C@H](O)C[C@H]2C(=O)N[C@@H](CC(N)=O)C(=O)N1)C(=O)N[C@@H](CCCCNC(=O)CCOCCOCCOCCOCCOCCOCCOCCOCCOCCOCCOCCOCCOCCOCCOCCOCCOCCOCCOCCOCCOCCOCCOCCOCCOCCOCCOCCOCCNC(=O)[C@H]1CSSC[C@@H](N)C(=O)N[C@H](CC(=O)O)C(=O)NCC(=O)N[C@@H](Cc2ccc(O)c([N+](=O)[O-])c2)C(=O)NCC(=O)N2C[C@H](O)C[C@H]2C(=O)N[C@@H](CC(N)=O)C(=O)N1)C(=O)O [Y9] (I: H-[dC][dD]G[Tyr(3-NO2)]G[Hyp]N[dC][PEG28] / II: H-[dC][dD]G[Tyr(3-NO2)]G[Hyp]N[dC][PEG28] / III: For-MIFLGGKK-OH; disulfide I:1-I:8, II:1-II:8; amide I:C-III:7, II:C-III:8)",time Y9 remains largely intact,[1],> 24 h
same,animals with tumors present after 35 days,"GPC-16 tumor cells; single dose 200 nmol mixed with 1.6–2 × 10^7 GPC-16 cells and Matrigel, s.c., CPA-treated Dunkin Hartley guinea pigs, control 8 out of 9",3 out of 10
same,reduction of establishment of GPC-16 based tumor,"GPC-16 tumor cells; single dose treatment during injection of tumor cells, guinea pigs",67%
same,undesired effects in guinea pigs,GPC-16 tumor cells; single s.c. dose 200 nmol,reddening at the injection site
